From US20230247992A1, “ARTHROPOD CONTROL COMPOSITION” (Firmenich SA, priority 2020, published 2023)

Legend:
Aedes aegypti [1] = assay: in vitro Warm Body assay, substance applied on glass Petri dish on top of the warm body (deterrence and repellence); assay type: in vivo
Aedes aegypti [2] = assay: in vitro Warm Body assay, substance introduced in the cage air by forced evaporation (spatial repellence); assay type: in vivo
Aedes aegypti [3] = assay: in vivo Arm-in-cage assay on human volunteers; conditions: for decrease of the percentage of mosquito landing on the arm: 20% applied on arm skin (600 cm^2), three volunteers
Method: The controlling effect, repellence & spatial repellence, according to the present invention is also determined according to an arm in the box method adapted from the WHO Guidelines for efficacy testing of mosquito repellents for human skin (WHO/CDS/NTD/WHOPES/2009.4). […] Further information is provided in the accompanying examples.
The Arm in the box method was adapted from the WHO Guidelines for efficacy testing of mosquito repellents for human skin (WHO/CDS/NTD/WHOPES/2009.4). The readiness of 100 hungry female mosquitoes A. aegypti to probe is assessed by inserting an untreated arm into the cage (40×40×40 cm) for 30 seconds (negative control) three times (once at the beginning, once at the fourth hour and once at the eighth hour), to determine probing activity. Then, the product is applied onto the skin of the forearm of a human volunteer (1 mL per 600 cm^2) and after 5 minutes, this arm is inserted into the cage and exposed for 3 minutes. The assay take place in temperature (27±2° C.) and humidity (80±10%RH) regulated room on three different volunteers.
Arm-in-cage test is a compulsory assay for most biocide registrations to assess the efficacy of a substance. It is a very challenging test as the treated arm of a volunteer is being placed in a space containing a density of […] blood hungry mosquitoes / m^3 of air.

Ixodes ricinus = assay: whole plant or invertebrate; assay type: in vivo; conditions: for pest or weed control at 1 µg/cm2, 1 µg/cm2 / pest or weed control at 5 µg/cm2, 5 µg/cm2 / pest or weed control at 25 µg/cm2, 25 µg/cm2: Ixodes ricinus, read-out: mean percentage of ticks affected

CCCCCC1CCCC(=O)O1 (stereo not shown) [6-pentyloxan-2-one]
number of mosquitoes landing within 2 minutes on the warm body (Aedes aegypti [1]; 0.04% in ethanol, ethanol control 67.0±8.8 landings): 7.0
number of mosquitoes landing within 2 minutes on the warm body (Aedes aegypti [1]; 1% in ethanol, ethanol control 67.0±8.8 landings): 2.0
number of mosquitoes landing within 2 minutes on the warm body (Aedes aegypti [1]; […] in ethanol, ethanol control 67.0±8.8 landings): 90.0
number of mosquitoes landing within 2 minutes on the warm body, air in the cage saturated with stimulus (Aedes aegypti [2]; 0.0017 µg/L air, without substance 54.1±4.9): 43.0
number of mosquitoes landing within 2 minutes on the warm body, air in the cage saturated with stimulus (Aedes aegypti [2]; 0.017 µg/L air, without substance 54.1±4.9): 4.0
number of mosquitoes landing within 2 minutes on the warm body, air in the cage saturated with stimulus (Aedes aegypti [2]; 0.17 µg/L air, without substance 54.1±4.9): 28.0
number of mosquitoes landing within 2 minutes on the warm body, air in the cage saturated with stimulus (Aedes aegypti [2]; 1.7 µg/L air, without substance 54.1±4.9): 0.5
number of mosquitoes landing within 2 minutes on the warm body, air in the cage saturated with stimulus (Aedes aegypti [2]; 17 µg/L air, without substance 54.1±4.9): 0.0
repellence in the arm-in-cage test (Aedes aegypti [3]; maintained for more than 4h (FIG. 3)): above 75%

CCC/C=C1\OC(=O)c2ccccc21 [(3Z)-3-butylidene-2-benzofuran-1-one]
number of mosquitoes landing within 2 minutes on the warm body (Aedes aegypti [1]; 0.04% in ethanol, ethanol control 67.1±9.1 landings): 9.0
number of mosquitoes landing within 2 minutes on the warm body (Aedes aegypti [1]; 1% in ethanol, ethanol control 67.1±9.1 landings): 1.0
number of mosquitoes landing within 2 minutes on the warm body (Aedes aegypti [1]; […] in ethanol, ethanol control 67.1±9.1 landings): 54.0
number of mosquitoes landing within 2 minutes on the warm body, air in the cage saturated with stimulus (Aedes aegypti [2]; 0.0017 µg/L air, without substance 56.0±3.6): 59.0
number of mosquitoes landing within 2 minutes on the warm body, air in the cage saturated with stimulus (Aedes aegypti [2]; 0.017 µg/L air, without substance 56.0±3.6): 31.5
number of mosquitoes landing within 2 minutes on the warm body, air in the cage saturated with stimulus (Aedes aegypti [2]; 0.17 µg/L air, without substance 56.0±3.6): 17.0
number of mosquitoes landing within 2 minutes on the warm body, air in the cage saturated with stimulus (Aedes aegypti [2]; 1.7 µg/L air, without substance 56.0±3.6): 11.0
number of mosquitoes landing within 2 minutes on the warm body, air in the cage saturated with stimulus (Aedes aegypti [2]; 17 µg/L air, without substance 56.0±3.6): 37.0
repulsion (Aedes aegypti [2]; doses of 1.7 and/or 17 µg/L in air): < 90%
pest or weed control at 1 µg/cm2, 1 µg/cm2 (Ixodes ricinus): 77%
pest or weed control at 5 µg/cm2, 5 µg/cm2 (Ixodes ricinus): 100%
pest or weed control at 25 µg/cm2, 25 µg/cm2 (Ixodes ricinus): 100%
tick response compared with the benchmark IR3535 (Ixodes ricinus; concentrations tested): greater tick repellency
ticks affected (Ixodes ricinus; intermediate dose tested (0.2%)): all tested ticks were affected
fraction of the ticks affected (Ixodes ricinus; lowest dose tested (0.04%)): more than ¾

COc1cc(C=O)ccc1O [4-hydroxy-3-methoxybenzaldehyde]
number of mosquitoes landing within 2 minutes on the warm body (Aedes aegypti [1]; 0.04% in ethanol, ethanol control 59.3±6.9 landings): 9.0
number of mosquitoes landing within 2 minutes on the warm body (Aedes aegypti [1]; 1% in ethanol, ethanol control 59.3±6.9 landings): 3.0
number of mosquitoes landing within 2 minutes on the warm body (Aedes aegypti [1]; […] in ethanol, ethanol control 59.3±6.9 landings): 19.0
number of mosquitoes landing within 2 minutes on the warm body, air in the cage saturated with stimulus (Aedes aegypti [2]; 0.0017 µg/L air, without substance 54.7±3.2): 17.0
number of mosquitoes landing within 2 minutes on the warm body, air in the cage saturated with stimulus (Aedes aegypti [2]; 0.017 µg/L air, without substance 54.7±3.2): 9.0
number of mosquitoes landing within 2 minutes on the warm body, air in the cage saturated with stimulus (Aedes aegypti [2]; 0.17 µg/L air, without substance 54.7±3.2): 1.5
number of mosquitoes landing within 2 minutes on the warm body, air in the cage saturated with stimulus (Aedes aegypti [2]; 1.7 µg/L air, without substance 54.7±3.2): 3.5
number of mosquitoes landing within 2 minutes on the warm body, air in the cage saturated with stimulus (Aedes aegypti [2]; 17 µg/L air, without substance 54.7±3.2): 1.0
decrease of the percentage of mosquito landing on the arm (Aedes aegypti [3]; 5 min post-application): 82±5.2%
decrease of the percentage of mosquito landing on the arm (Aedes aegypti [3]; 1 h post-application): 78±2.6%
decrease of the percentage of mosquito landing on the arm (Aedes aegypti [3]; 2 h post-application): 66±8.0%
decrease of the percentage of mosquito landing on the arm (Aedes aegypti [3]; 3 h post-application): 61±6%
decrease of the percentage of mosquito landing on the arm (Aedes aegypti [3]; 4 h post-application): 63±2%
pest or weed control at 1 µg/cm2, 1 µg/cm2 (Ixodes ricinus): 14%
pest or weed control at 5 µg/cm2, 5 µg/cm2 (Ixodes ricinus): 44%
pest or weed control at 25 µg/cm2, 25 µg/cm2 (Ixodes ricinus): 73%
